US20230287510A1, “COMPOSITIONS, PANELS, AND METHODS FOR CHARACTERIZING CHRONIC LYMPHOCYTIC LEUKEMIA” (The Broad Institute, Inc., priority 2020, published 2023)

Test system: chronic lymphocytic leukemia (CLL) samples classified by expression subtype (Ec-i, EC-m1, EC-m2, EC-m3, EC-m4, EC-o, EC-u1, EC-u2)
Assay: Ex-vivo drug sensitivity (percent viability) of CLL samples compared between expression subtypes (ECs); as to Mean viability in the EC: test concentration or dose not given here; as to Mean viability in the other ECs: test concentration or dose not given here
Assay type: cell-based
Excerpt: An analysis was completed to determine whether the expression clusters (ECs) can be used to predict the resistance and sensitivity of different chronic lymphocytic leukemias to various drugs. […] The expression subtypes were then used with the drug sensitivity data to compare the percent […] of samples in each expression cluster to the percent viability of samples in all other expression clusters.

## C=C(C)[C@H]1Cc2c(ccc3c2O[C@@H]2COc4cc(OC)c(OC)cc4[C@@H]2C3=O)O1 [rotenone]
All ECs other than EC-i
  Mean viability in the other ECs: 0.77
All ECs other than EC-m4
  Mean viability in the other ECs: 0.77
All ECs other than EC-u2
  Mean viability in the other ECs: 0.74
Expression cluster EC-i
  Drug response associated with the EC: Sensitive
  Mean viability in the EC: 0.63
Expression cluster EC-m4
  Drug response associated with the EC: Sensitive
  Mean viability in the EC: 0.67
Expression cluster EC-u2
  Drug response associated with the EC: Resistant
  Mean viability in the EC: 0.92

## C=CCn1c(=O)c2cnc(Nc3ccc(N4CCN(C)CC4)cc3)nc2n1-c1cccc(C(C)(C)O)n1 [MK-1775]
All ECs other than EC-m3
  Mean viability in the other ECs: 1.00
All ECs other than EC-u1
  Mean viability in the other ECs: 1.02
Expression cluster EC-m3
  Drug response associated with the EC: Resistant
  Mean viability in the EC: 1.04
Expression cluster EC-u1
  Drug response associated with the EC: Sensitive
  Mean viability in the EC: 0.98

## CN1CCN(CCOc2cc(OC3CCOCC3)c3c(Nc4c(Cl)ccc5c4OCO5)ncnc3c2)CC1 [saracatinib]
All ECs other than EC-i
  Mean viability in the other ECs: 1.07
Expression cluster EC-i
  Mean viability in the EC: 1.13

## O=c1cc(N2CCOCC2)oc2c(-c3cccc4c3sc3ccccc34)cccc12 [NU7441]
Expression cluster EC-m4
  Drug response associated with the EC: Resistant
Expression cluster EC-u2
  Drug response associated with the EC: Sensitive

## COc1cc2nc(-c3cc(F)ccc3O)nc(N[C@@H]3CNC[C@H]3C(C)(C)O)c2cc1OC [CCT241533]
All ECs other than EC-m1
  Mean viability in the other ECs: 1.06
All ECs other than EC-m3
  Mean viability in the other ECs: 1.06
Expression cluster EC-m1
  Drug response associated with the EC: Resistant
  Mean viability in the EC: 1.11
Expression cluster EC-m3
  Drug response associated with the EC: Resistant
  Mean viability in the EC: 1.09

## C[C@@H]1CN(CC(=O)Nc2ccc3c(c2)Cc2cccc(-c4cc(=O)cc(N5CCOCC5)o4)c2S3)C[C@H](C)O1 [KU-60019]
All ECs other than EC-m3
  Mean viability in the other ECs: 0.97
All ECs other than EC-u2
  Mean viability in the other ECs: 0.97
Expression cluster EC-m3
  Drug response associated with the EC: Resistant
  Mean viability in the EC: 1.00
Expression cluster EC-u2
  Drug response associated with the EC: Sensitive
  Mean viability in the EC: 0.90

## C=CC(=O)Nc1cccc(Nc2nc(Nc3ccc(OCCOC)cc3)ncc2F)c1 [spebrutinib]
All ECs other than EC-m4
  Mean viability in the other ECs: 0.95
All ECs other than EC-u1
  Mean viability in the other ECs: 0.98
All ECs other than EC-u2
  Mean viability in the other ECs: 0.96
Expression cluster EC-m4
  Mean viability in the EC: 1.01
Expression cluster EC-u1
  Mean viability in the EC: 0.92
Expression cluster EC-u2
  Mean viability in the EC: 0.88

## CC(C)c1cc(C(=O)N2Cc3ccc(CN4CCN(C)CC4)cc3C2)c(O)cc1O [AT13387]
All ECs other than EC-m1
  Mean viability in the other ECs: 0.72
All ECs other than EC-m3
  Mean viability in the other ECs: 0.72
All ECs other than EC-m4
  Mean viability in the other ECs: 0.70
All ECs other than EC-u1
  Mean viability in the other ECs: 0.75
All ECs other than EC-u2
  Mean viability in the other ECs: 0.74
Expression cluster EC-m1
  Drug response associated with the EC: Resistant
  Mean viability in the EC: 0.82
Expression cluster EC-m3
  Drug response associated with the EC: Resistant
  Mean viability in the EC: 0.81
Expression cluster EC-m4
  Drug response associated with the EC: Resistant
  Mean viability in the EC: 0.81
Expression cluster EC-u1
  Drug response associated with the EC: Sensitive
  Mean viability in the EC: 0.68
Expression cluster EC-u2
  Drug response associated with the EC: Sensitive
  Mean viability in the EC: 0.50
